Source: patent US10988523B2, “Modified lipidated Relaxin B chain peptides and their therapeutic use” (Sanofi, priority 2018, dated 2021)
*1 amine or outer side, *2 acyl side, *3 side chain or, on linkers, in order; H or OH if unused. Where a SMILES comes first, the peptide text is derived from it. Side-chain parts run from the residue outwards. [ ]: non-standard residue; d: D form. The star is where a group is joined. PEG28 = NCCOCCOCCOCCOCCOCCOCCOCCOCCOCCOCCOCCOCCOCCOCCOCCOCCOCCOCCOCCOCCOCCOCCOCCOCCOCCOCCOCCOCCC(=O)O; γGlu = O=C(O)[C@H](CCC(=O)[*:2])N[*:1]; Stearoyl = CCCCCCCCCCCCCCCCCC(=O)*; Palmitoyl = CCCCCCCCCCCCCCCC(=O)*; Nle = CCCC[C@H](N)C(=O)O; AEEA = NCCOCCOCC(=O)O; Aib = CC(C)(N)C(=O)O

These compounds were tested against T1, RXFP1 (Homo sapiens, UniProt Q9HBX9) (assay: OVCAR5 cAMP assay (HTRF), RXFP1 agonist activity). Conditions: OVCAR-5; maximal cAMP relative to H2-relaxin maximum (100%); read-out: EMax, OVCAR 5 cells (cAMP).
T1 construct: OVCAR5 cells expressing endogenous RXFP1; endogenous in cells; host or cells: OVCAR5 cells
T1 sequence (Q9HBX9 1-757): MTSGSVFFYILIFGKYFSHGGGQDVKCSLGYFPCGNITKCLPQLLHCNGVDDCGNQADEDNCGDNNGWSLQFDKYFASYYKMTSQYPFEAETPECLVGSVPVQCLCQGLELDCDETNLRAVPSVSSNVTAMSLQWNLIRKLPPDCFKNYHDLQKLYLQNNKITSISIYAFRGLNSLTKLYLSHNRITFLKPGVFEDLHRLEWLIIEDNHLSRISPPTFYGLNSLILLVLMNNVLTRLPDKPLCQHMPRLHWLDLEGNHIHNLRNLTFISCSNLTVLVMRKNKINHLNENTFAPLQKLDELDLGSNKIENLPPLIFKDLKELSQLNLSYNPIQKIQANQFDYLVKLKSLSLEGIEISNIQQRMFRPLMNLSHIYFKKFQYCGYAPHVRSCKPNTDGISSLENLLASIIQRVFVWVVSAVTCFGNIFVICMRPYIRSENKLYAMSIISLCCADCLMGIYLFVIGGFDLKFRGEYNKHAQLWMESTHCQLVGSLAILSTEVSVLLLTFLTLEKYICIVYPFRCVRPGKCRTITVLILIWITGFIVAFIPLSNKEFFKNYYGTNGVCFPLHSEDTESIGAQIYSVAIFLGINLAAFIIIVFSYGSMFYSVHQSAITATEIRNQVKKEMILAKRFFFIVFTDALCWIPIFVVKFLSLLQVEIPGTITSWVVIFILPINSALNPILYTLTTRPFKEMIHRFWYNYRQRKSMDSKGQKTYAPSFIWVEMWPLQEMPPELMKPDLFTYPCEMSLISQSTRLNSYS
Assay type: cell-based
Outline: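 OVCAR5 cells (endogenous RXFP1) pretreated 40 min at 37° C with 1 mM IBMX, then exposed to peptides in serum-free medium for 30 min at 37° C. Lysate cAMP read by HTRF; EC50 from variable-slope sigmoidal fit; Emax as % of H2-relaxin maximal cAMP in same run.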

Compound | Emax
CCCCCCCCCCCCCCCCCC(=O)N[C@@H](CCC(=O)N[C@@H](CCC(=O)N[C@@H](CCC(=O)NCCCC[C@H](NC(=O)CCOCCOCCOCCOCCOCCOCCOCCOCCOCCOCCOCCOCCOCCOCCOCCOCCOCCOCCOCCOCCOCCOCCOCCOCCOCCOCCOCCOCCNC(=O)[C@H](CCCCN)NC(=O)[C@H](CCCCN)NC(=O)[C@H](CCCNC(=N)N)NC(=O)C(C)(C)NC(=O)[C@H](CO)NC(=O)[C@H](Cc1c[nH]c2ccccc12)NC(=O)[C@@H](NC(=O)[C@H](CO)NC(=O)[C@H](CCCC)NC(=O)CNC(=O)[C@H](CCC(=O)O)NC(=O)C(C)(C)NC(=O)C(C)(C)NC(=O)[C@@H](NC(=O)[C@H](CCCCNC(C)=O)NC(=O)[C@H](C)NC(=O)[C@H](CCCNC(=N)N)NC(=O)[C@@H](NC(=O)[C@H](CCCCN)NC(=O)[C@H](CCC(=O)O)NC(=O)[C@H](CCCNC(=N)N)NC(=O)CNC(=O)[C@H](CCC(=O)O)NC(=O)[C@H](CC(C)C)NC(C)=O)C(C)C)[C@@H](C)CC)[C@@H](C)O)C(N)=O)C(=O)O)C(=O)O)C(=O)O [compound 48] (Ac-LEGREKVRAK(Ac)I[Aib][Aib]EG[Nle]STWS[Aib]RKK[PEG28]K([γGlu-γGlu-γGlu-Stearoyl])-NH2) | 99%
CCCCCCCCCCCCCCCCCC(=O)N[C@@H](CCC(=O)N[C@@H](CCC(=O)N[C@@H](CCC(=O)NCCCC[C@H](NC(=O)CCOCCOCCOCCOCCOCCOCCOCCOCCOCCOCCOCCOCCOCCOCCOCCOCCOCCOCCOCCOCCOCCOCCOCCOCCOCCOCCOCCOCCNC(=O)[C@H](CCCCNC(C)=O)NC(=O)[C@H](CCCCN)NC(=O)[C@H](CCCNC(=N)N)NC(=O)C(C)(C)NC(=O)[C@H](CO)NC(=O)[C@H](Cc1c[nH]c2ccccc12)NC(=O)[C@@H](NC(=O)[C@H](CO)NC(=O)[C@H](CCCC)NC(=O)CNC(=O)[C@H](CCC(=O)O)NC(=O)C(C)(C)NC(=O)C(C)(C)NC(=O)[C@@H](NC(=O)[C@H](CCCCNC(C)=O)NC(=O)[C@H](C)NC(=O)[C@H](CCCNC(=N)N)NC(=O)[C@@H](NC(=O)[C@H](CCCCN)NC(=O)[C@H](CCC(=O)O)NC(=O)[C@H](CCCNC(=N)N)NC(=O)CNC(=O)[C@H](CCC(=O)O)NC(=O)[C@H](CC(C)C)NC(C)=O)C(C)C)[C@@H](C)CC)[C@@H](C)O)C(N)=O)C(=O)O)C(=O)O)C(=O)O [compound 49] (Ac-LEGREKVRAK(Ac)I[Aib][Aib]EG[Nle]STWS[Aib]RKK(Ac)[PEG28]K([γGlu-γGlu-γGlu-Stearoyl])-NH2) | 106%
CCCCCCCCCCCCCCCC(=O)NCCOCCOCC(=O)NCCCC[C@H](NC(=O)[C@H](CCCCN)NC(=O)[C@H](CCCNC(=N)N)NC(=O)C(C)(C)NC(=O)[C@H](CO)NC(=O)[C@H](Cc1c[nH]c2ccccc12)NC(=O)[C@@H](NC(=O)[C@H](CO)NC(=O)[C@H](CCCC)NC(=O)CNC(=O)[C@H](CCC(=O)O)NC(=O)C(C)(C)NC(=O)C(C)(C)NC(=O)[C@@H](NC(=O)[C@H](CCC(N)=O)NC(=O)[C@H](C)NC(=O)[C@H](CCCNC(=N)N)NC(=O)[C@@H](NC(=O)[C@H](CCCCN)NC(=O)[C@H](CCC(=O)O)NC(=O)[C@H](CCCNC(=N)N)NC(=O)CNC(=O)[C@H](CCC(=O)O)NC(=O)[C@H](CC(C)C)NC(C)=O)C(C)C)[C@@H](C)CC)[C@@H](C)O)C(N)=O [compound 50] (Ac-LEGREKVRAQI[Aib][Aib]EG[Nle]STWS[Aib]RKK([AEEA-Palmitoyl])-NH2) | 95%
CCCCCCCCCCCCCCCC(=O)N[C@@H](CCC(=O)NCCOCCOCC(=O)NCCCC[C@H](NC(=O)[C@H](CCCCN)NC(=O)[C@H](CCCNC(=N)N)NC(=O)C(C)(C)NC(=O)[C@H](CO)NC(=O)[C@H](Cc1c[nH]c2ccccc12)NC(=O)[C@@H](NC(=O)[C@H](CO)NC(=O)[C@H](CCCC)NC(=O)CNC(=O)[C@H](CCC(=O)O)NC(=O)C(C)(C)NC(=O)C(C)(C)NC(=O)[C@@H](NC(=O)[C@H](CCC(N)=O)NC(=O)[C@H](C)NC(=O)[C@H](CCCNC(=N)N)NC(=O)[C@@H](NC(=O)[C@H](CCCCN)NC(=O)[C@H](CCC(=O)O)NC(=O)[C@H](CCCNC(=N)N)NC(=O)CNC(=O)[C@H](CCC(=O)O)NC(=O)[C@H](CC(C)C)NC(C)=O)C(C)C)[C@@H](C)CC)[C@@H](C)O)C(N)=O)C(=O)O [compound 53] (Ac-LEGREKVRAQI[Aib][Aib]EG[Nle]STWS[Aib]RKK([AEEA-γGlu-Palmitoyl])-NH2) | 97%

Results, then the compound that gave them:

Emax | Compound
100% | CCCCCCCCCCCCCCCCCC(=O)NCCOCCOCC(=O)NCCOCCOCC(=O)NCCCC[C@H](NC(=O)[C@H](CCCCNC(C)=O)NC(=O)[C@H](CCCCN)NC(=O)[C@H](CCCNC(=N)N)NC(=O)C(C)(C)NC(=O)[C@H](CO)NC(=O)[C@H](Cc1c[nH]c2ccccc12)NC(=O)[C@@H](NC(=O)[C@H](CO)NC(=O)[C@H](CCCC)NC(=O)CNC(=O)[C@H](CCC(=O)O)NC(=O)C(C)(C)NC(=O)C(C)(C)NC(=O)[C@@H](NC(=O)[C@H](CCC(N)=O)NC(=O)[C@H](C)NC(=O)[C@H](CCCNC(=N)N)NC(=O)[C@@H](NC(=O)[C@H](CCCCN)NC(=O)[C@H](CCC(=O)O)NC(=O)[C@H](CCCNC(=N)N)NC(=O)CNC(=O)[C@H](CCC(=O)O)NC(=O)[C@H](CC(C)C)NC(C)=O)C(C)C)[C@@H](C)CC)[C@@H](C)O)C(N)=O [compound 51] (Ac-LEGREKVRAQI[Aib][Aib]EG[Nle]STWS[Aib]RKK(Ac)K([AEEA-AEEA-Stearoyl])-NH2)
98% | CCCCCCCCCCCCCCCCCC(=O)NCCOCCOCC(=O)NCCOCCOCC(=O)NCCOCCOCC(=O)NCCCC[C@H](NC(=O)[C@H](CCCCNC(C)=O)NC(=O)[C@H](CCCCN)NC(=O)[C@H](CCCNC(=N)N)NC(=O)C(C)(C)NC(=O)[C@H](CO)NC(=O)[C@H](Cc1c[nH]c2ccccc12)NC(=O)[C@@H](NC(=O)[C@H](CO)NC(=O)[C@H](CCCC)NC(=O)CNC(=O)[C@H](CCC(=O)O)NC(=O)C(C)(C)NC(=O)C(C)(C)NC(=O)[C@@H](NC(=O)[C@H](CCC(N)=O)NC(=O)[C@H](C)NC(=O)[C@H](CCCNC(=N)N)NC(=O)[C@@H](NC(=O)[C@H](CCCCN)NC(=O)[C@H](CCC(=O)O)NC(=O)[C@H](CCCNC(=N)N)NC(=O)CNC(=O)[C@H](CCC(=O)O)NC(=O)[C@H](CC(C)C)NC(C)=O)C(C)C)[C@@H](C)CC)[C@@H](C)O)C(N)=O [compound 52] (Ac-LEGREKVRAQI[Aib][Aib]EG[Nle]STWS[Aib]RKK(Ac)K([AEEA-AEEA-AEEA-Stearoyl])-NH2)
98% | CCCCCCCCCCCCCCCC(=O)N[C@@H](CCC(=O)N[C@@H](CCC(=O)NCCOCCOCC(=O)NCCCC[C@H](NC(=O)[C@H](CCCCN)NC(=O)[C@H](CCCNC(=N)N)NC(=O)C(C)(C)NC(=O)[C@H](CO)NC(=O)[C@H](Cc1c[nH]c2ccccc12)NC(=O)[C@@H](NC(=O)[C@H](CO)NC(=O)[C@H](CCCC)NC(=O)CNC(=O)[C@H](CCC(=O)O)NC(=O)C(C)(C)NC(=O)C(C)(C)NC(=O)[C@@H](NC(=O)[C@H](C)NC(=O)[C@H](C)NC(=O)[C@H](CCCNC(=N)N)NC(=O)[C@@H](NC(=O)[C@H](CCCCN)NC(=O)[C@H](CCC(=O)O)NC(=O)[C@H](CCCNC(=N)N)NC(=O)CNC(=O)[C@H](CCC(=O)O)NC(=O)[C@H](CC(C)C)NC(=O)[C@H](CCC(=O)O)NC(C)=O)C(C)C)[C@@H](C)CC)[C@@H](C)O)C(N)=O)C(=O)O)C(=O)O [compound 54] (Ac-ELEGREKVRAAI[Aib][Aib]EG[Nle]STWS[Aib]RKK([AEEA-γGlu-γGlu-Palmitoyl])-NH2)
94% | CCCCCCCCCCCCCCCC(=O)N[C@@H](CCC(=O)N[C@@H](CCC(=O)N[C@@H](CCC(=O)NCCOCCOCC(=O)NCCCC[C@H](NC(=O)[C@H](CCCCN)NC(=O)[C@H](CCCNC(=N)N)NC(=O)C(C)(C)NC(=O)[C@H](CO)NC(=O)[C@H](Cc1c[nH]c2ccccc12)NC(=O)[C@@H](NC(=O)[C@H](CO)NC(=O)[C@H](CCCC)NC(=O)CNC(=O)[C@H](CCC(=O)O)NC(=O)C(C)(C)NC(=O)C(C)(C)NC(=O)[C@@H](NC(=O)[C@H](CCC(N)=O)NC(=O)[C@H](C)NC(=O)[C@H](CCCNC(=N)N)NC(=O)[C@@H](NC(=O)[C@H](CCCCN)NC(=O)[C@H](CCC(=O)O)NC(=O)[C@H](CCCNC(=N)N)NC(=O)CNC(=O)[C@H](CCC(=O)O)NC(=O)[C@H](CC(C)C)NC(C)=O)C(C)C)[C@@H](C)CC)[C@@H](C)O)C(N)=O)C(=O)O)C(=O)O)C(=O)O [compound 55] (Ac-LEGREKVRAQI[Aib][Aib]EG[Nle]STWS[Aib]RKK([AEEA-γGlu-γGlu-γGlu-Palmitoyl])-NH2)
